Laboratory results as given in patent US20060110385A1, “Means and methods for diagnosing and treating affective disorders” (Affectis Pharmaceuticals AG, priority 2003, published 2006).

Tests used:
mice = test: Open field test (locomotor activity) after oATP; assay type: in vivo, mouse; settings: 10 μM or 50 μM oATP, 15 minutes after injection, 30 minutes
Method: Locomotor activity in mice treated with control vehicle solution, 10 μM oATP, or 50 μM oATP was assessed 15 minutes after injection by placing individual animal in a dark-grey wooden box (30×30×40 cm). Locomotor activity was monitored for a period of 30 minutes using a video camera. Overall distance travelled by the animals during the testing period was then analysed by means of VideoMot2 computer software (TSE GmbH, Bad Homburg).

P2X7R [1] = molecular target: T1, P2X7R (Mus musculus, UniProt Q9Z1M0); test: Calcium influx into HT-22 cells (Oregon green AM ester); assay type: cell-based; settings: 100 mM oATP for 1 hour before BzATP
T1 construct: endogenous in cells; host or cells: HT-22 (immortalised mouse hippocampal cell line)
T1 sequence (Q9Z1M0 1-595): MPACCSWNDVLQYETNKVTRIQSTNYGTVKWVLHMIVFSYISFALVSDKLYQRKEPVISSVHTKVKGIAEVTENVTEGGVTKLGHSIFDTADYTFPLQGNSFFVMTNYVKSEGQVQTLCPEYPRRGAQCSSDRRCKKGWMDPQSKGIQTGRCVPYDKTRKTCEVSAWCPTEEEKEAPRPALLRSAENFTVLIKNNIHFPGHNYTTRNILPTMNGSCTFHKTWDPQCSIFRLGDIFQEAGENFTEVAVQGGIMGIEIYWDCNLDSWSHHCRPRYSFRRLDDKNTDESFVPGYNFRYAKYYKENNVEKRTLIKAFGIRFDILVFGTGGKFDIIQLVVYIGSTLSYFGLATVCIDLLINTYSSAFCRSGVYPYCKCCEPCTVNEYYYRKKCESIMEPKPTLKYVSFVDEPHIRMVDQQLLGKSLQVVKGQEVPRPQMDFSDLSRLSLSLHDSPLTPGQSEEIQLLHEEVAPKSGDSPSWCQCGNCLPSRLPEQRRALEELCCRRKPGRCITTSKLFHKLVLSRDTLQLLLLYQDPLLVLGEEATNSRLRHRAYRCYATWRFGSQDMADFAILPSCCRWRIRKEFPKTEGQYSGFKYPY
Excerpt: Since P2X7R is an ATP-gated ion channel which allows the entry of calcium and sodium ions into cells, a method for identifying P2X7R agonist was established by monitoring calcium influx into HT-22 cells. […] Calcium movement into the cells was visualised under a fluorescent microscope with a fluorescein filter (wavelength 492/517 nm). Oregon green AM ester is a fluorescent dye that binds to intracellular calcium.
Activation of P2X7R by the agonist was inhibited by oATP (FIG. 18) as illustrated by the absence of green fluorescence in the cells.

DBA/201a mice = test: Porsolt's forced swim test after intrahippocampal P2X7R antagonists; assay type: in vivo, mouse; settings: 100 nM KN-62 or 10 μM oATP, 1 μl each side, dentate gyrus, 24 hours after injection
Excerpt: In the present example, the P2X7R antagonists were directly injected into the dentate gyrus region of the hippocampus. Briefly, three months old male mice were bilaterally implanted with guide cannulae (23 gauge, length 8 mm) by means of a stereotactic instrument (David Kopf Instruments). The coordinates, in relation to bregma, were −1.5 mm posterior, ±1.0 mm lateral, and −0.8 mm ventral. Mice were allowed to recover for 10 to 13 days after surgery. Following this recovery period, mice were injected with 1 μl vehicle solution (0.01% DMSO, Sigma), or 100 nM KN-62 (Sigma, prepared in 0.01% DMSO), or 10 μM oATP (Sigma, prepared in PBS) in each side of the brain over a period of 60 seconds. All injections were performed using a 9 mm-31 gauge needle inserted into the guide cannulae and connected via tubing to a 10 μl Hamilton syringe.
The behaviour of individual mice was assessed using the Porsolt's forced swim test 24 hours after injection of vehicle solution, KN-62, or oATP. A pre-exposure of 5 minutes to the test was performed 15-17 minutes after administration of vehicle, KN-62, or oATP. A description of the Porsolt's forced swim test is given in example 9. […] Observed results were verified statistically using one-way MANOVA test.

P2X7R [2] = molecular target: T1, P2X7R; test: Entry of ethidium bromide into HT-22 cells; assay type: cell-based; settings: pre-incubation 60 minutes with 100 μM o-ATP before agonist and ethidium bromide
Excerpt: Yet another method of measuring P2X7R activity involves the entry of ethidium bromide into P2X7R expressing cells. Activation of P2X7R by an agonist allows the entry of ethidium bromide which binds nuclear DNA and emits a fluorescence signal. Alternatively, the propidium dye YOPRO-1 can be substituted for ethidium bromide. An increase in fluorescence can be used as a measure of P2X7 receptor activation. Therefore, the assay can be used to test and quantify the effect of an agent or compound with agonist properties on P2X7R. In the present example, 10^3 HT-22 cells were seeded per well in a 96-well flat bottom microtitre plates and incubated at 37° C./5% CO2 in DMEM medium containing 10% FCS until the cells attached to the culture surface. […] The number of fluorescent cells which have integrated the ethidium bromide to the DNA can then be counted using a fluorescent microscope (Zeiss, Germany). […] Alternatively, ethidium bromide fluorescence can be measured using a Perkin-Elmer fluorescent plate reader (excitation 520 nm, emission 595 nm, slit widths: Ex 15 nm, Em 20 nm). From the readings obtained, a pIC50 figure can be calculated for each candidate agent or compound. […] The specificity of an agonist for P2X7R can be evaluated by pre-incubation of the cells for 60 minutes with 100 μM o-ATP before adding the agonist and ethidium bromide dye.

For `Nc1ncnc2c1ncn2[C@@H](C=O)O[C@@H](C=O)COP(=O)(O)OP(=O)(O)OP(=O)(O)O` [oATP, Oxidized ATP], which “locomotor activity (overall distance travelled)” value (mice) is on record?
Its value is “No difference in locomotor activity”.

What about the “activation of P2X7R by the agonist (calcium influx) after antagonist pre-treatment” value (P2X7R [1]) of the same compound?
Its value is “inhibited”.

And the “active escape attempts (time, frequency, latency of struggling)” value (DBA/201a mice)?
The value was “no changes”.

And the “passive behaviour (time, frequency, latency of floating)” value (DBA/201a mice)?
Its value is “no changes”.

And the “number of fluorescent cells after antagonist pre-incubation” value (P2X7R [2])?
The value was “reduction in the number of fluorescent cells”.
